This is an account of results in patent US20080064754A1, “Amino ion releasing hydrogen bonded molecule” (priority 2006, published 2008).

Data set [1] can be described thus: Hygroscopicity of the powder. The class given is physicochemical. An excerpt:
Tri-Amino is a hygroscopic powder and as such is a valuable additive to moisturizing cosmetics.

The subject of a further data set is inflammation. The data set can be described thus: Anti-inflammatory, anecdotal preliminary experiment. Conditions: all forms of delivery. It counts as in vivo.
Data set [2] relates to wounds, burns (of all degrees) and several types of chronic lesions. The data set can be described thus: Wound healing, anecdotal preliminary experiment. It counts as in vivo.
Another data set concerns microcirculation. It counts as in vivo. An excerpt:
This acceleration of microcirculation has many positive benefits.

For the next data set, the system named is laboratory mice. In words: LD-50 animal safety studies. The class given is in vivo. The conditions noted are these: oral feeding, intravenous infusion and inhalation, up to 50 percent liquid or 100 percent powder. The protocol: Applicant has tested the final reaction product in LD-50 animal (laboratory mice) studies. These studies were conducted with oral feeding, intravenous infusion and inhalation. […] (Applicant's testing facility was unable to kill the mice with very high concentrations (up to 50 percent liquid or 100 percent powder) of Applicant's Tri-Amino.

For data set [3] the following is noted: cited from earlier work.

Take “2-amino 5-triaminoguanidovalericbenzoicdiacetate [Tri-Amino]”: the hygroscopicity result in data set [1] is listed as “hygroscopic”. Moreover, in the data set with inflammation, the anti-inflammatory qualities result is on record as “shown anti-inflammatory qualities”. In data set [2], the “healing of wounds, burns and chronic lesions” value was “ability to aid and accelerate the healing of wounds, burns (of all degrees) and several types of chronic lesions”; the lesions healed entry is on record as “radiation burns (third degree with complete suppression of scar formation), squamous cell carcinoma, basal cell carcinoma, psoriasis, venous stasis ulcers, decubitus ulcers (bed sores), deep surgical wounding (with suppression of scar formation), oral & genital herpes”. Besides, the “toxic side effects on acceleration of microcirculation” value in the data set on microcirculation (in vivo) is listed as “without toxic side effects”. The vaso-dilating qualities result in the data set on microcirculation (topically or internally, anecdotal, preliminary) is “exhibited vaso-dilating qualities”. The “toxicity in LD-50 studies” value with laboratory mice was “no toxicity what-so-ever”.

In the case of `Nc1ccc(C(=O)O)cc1` [PABA, p-aminobenzoic acid], in data set [3], the solubility in water result was “slightly soluble in water”.
